Data from US20100130457A1, “Phenothiazine Derivatives for Treatment of Asthma” (Immune Control, Inc., priority 2008, published 2010).
“Also recorded” adds a separate entry of the source.

Key:
[1] = target: hCav1.2 (Homo sapiens, UniProt Q13936); test: Cardiac ion channels expressed in mammalian cells; type: cell-based; settings: 0.1 μM, 1 μm, 10 μm, and 100 μm
From the text: Opening of voltage-gated calcium channels results in influx of calcium ions into the cell. This influx of calcium plays an important role in excitation-contraction coupling in cardiac and skeletal muscle fibers. The reversal potential for calcium is extremely positive, so calcium current is almost always inward, resulting in an action potential plateau in many excitable cells. These channels are the target of calcium channel blocker subtype of antihypertensive drugs. The alpha-1 subunit forms the ion conducting pore, with several modulating auxiliary subunits. Major subtypes of voltage-gated calcium channels include L-type (Cav1.1, Cav1.2, Cav1.3, Cav1.4), T-type (Cav3.1, Cav3.2, Cav3.3), N-type (Cav2.2), P-type (Cav2.1), and R-type (Cav2.3).
Mammalian cells were treated with ICI-735 (0.1 μM, 1 μm, 10 μm, and 100 μm) to determine whether ICI-735 blocked the expression of cardiac ion channels. It was observed that ICI-735 was able to block the expression of both hERG and hCav1.2). Without wishing to be bound by any particular theory, it is believed that the blocks in hERG and calcium channels may cancel one another physiologically, but sodium channel effect may lead to changes in membrane potential.

[2] = system: RPMI 8226; test: Inhibition of proliferation of RPMI 8226 cells; type: cell-based, human; settings: RPMI cells in vitro
From the text: The next set of experiments was designed to assess compounds that have low levels of brain penetration for the ability of the test compounds to inhibit cellular proliferation. An exemplary in vitro assay is to screen for the ability of the test compounds to inhibit proliferation of the B-cell neoplastic cell line RPMI 8226 (a plasmacytoma derived from a multiple myeloma patient (Matsuoka, et al., 1967, Proc. Soc. Exp. Biol. Med. 125: 1246-1250). However other cell line can be used such as, U266 (established from an IgE-secreting myeloma patient (Nilsson, et al., 1970, Clin. Exp. Immunol., 7: 477-489) and ARH77 (an EBV transformed plasma cell leukemia (Burk, et al., 1978, Cancer Res. 38: 2508-2513).
FIG. 1 is a graph depicting the effects on the test compounds on RPMI cell viability.

[3] = system: panel of leukotriene and prostanoid receptors; test: Receptor binding panel
[4] = target: Nav1.5 (Homo sapiens, UniProt Q14524); test: Effects on action potential in a mammalian cell, sodium channel block; type: cell-based
Sequence of Nav1.5 (Q14524 whole entry): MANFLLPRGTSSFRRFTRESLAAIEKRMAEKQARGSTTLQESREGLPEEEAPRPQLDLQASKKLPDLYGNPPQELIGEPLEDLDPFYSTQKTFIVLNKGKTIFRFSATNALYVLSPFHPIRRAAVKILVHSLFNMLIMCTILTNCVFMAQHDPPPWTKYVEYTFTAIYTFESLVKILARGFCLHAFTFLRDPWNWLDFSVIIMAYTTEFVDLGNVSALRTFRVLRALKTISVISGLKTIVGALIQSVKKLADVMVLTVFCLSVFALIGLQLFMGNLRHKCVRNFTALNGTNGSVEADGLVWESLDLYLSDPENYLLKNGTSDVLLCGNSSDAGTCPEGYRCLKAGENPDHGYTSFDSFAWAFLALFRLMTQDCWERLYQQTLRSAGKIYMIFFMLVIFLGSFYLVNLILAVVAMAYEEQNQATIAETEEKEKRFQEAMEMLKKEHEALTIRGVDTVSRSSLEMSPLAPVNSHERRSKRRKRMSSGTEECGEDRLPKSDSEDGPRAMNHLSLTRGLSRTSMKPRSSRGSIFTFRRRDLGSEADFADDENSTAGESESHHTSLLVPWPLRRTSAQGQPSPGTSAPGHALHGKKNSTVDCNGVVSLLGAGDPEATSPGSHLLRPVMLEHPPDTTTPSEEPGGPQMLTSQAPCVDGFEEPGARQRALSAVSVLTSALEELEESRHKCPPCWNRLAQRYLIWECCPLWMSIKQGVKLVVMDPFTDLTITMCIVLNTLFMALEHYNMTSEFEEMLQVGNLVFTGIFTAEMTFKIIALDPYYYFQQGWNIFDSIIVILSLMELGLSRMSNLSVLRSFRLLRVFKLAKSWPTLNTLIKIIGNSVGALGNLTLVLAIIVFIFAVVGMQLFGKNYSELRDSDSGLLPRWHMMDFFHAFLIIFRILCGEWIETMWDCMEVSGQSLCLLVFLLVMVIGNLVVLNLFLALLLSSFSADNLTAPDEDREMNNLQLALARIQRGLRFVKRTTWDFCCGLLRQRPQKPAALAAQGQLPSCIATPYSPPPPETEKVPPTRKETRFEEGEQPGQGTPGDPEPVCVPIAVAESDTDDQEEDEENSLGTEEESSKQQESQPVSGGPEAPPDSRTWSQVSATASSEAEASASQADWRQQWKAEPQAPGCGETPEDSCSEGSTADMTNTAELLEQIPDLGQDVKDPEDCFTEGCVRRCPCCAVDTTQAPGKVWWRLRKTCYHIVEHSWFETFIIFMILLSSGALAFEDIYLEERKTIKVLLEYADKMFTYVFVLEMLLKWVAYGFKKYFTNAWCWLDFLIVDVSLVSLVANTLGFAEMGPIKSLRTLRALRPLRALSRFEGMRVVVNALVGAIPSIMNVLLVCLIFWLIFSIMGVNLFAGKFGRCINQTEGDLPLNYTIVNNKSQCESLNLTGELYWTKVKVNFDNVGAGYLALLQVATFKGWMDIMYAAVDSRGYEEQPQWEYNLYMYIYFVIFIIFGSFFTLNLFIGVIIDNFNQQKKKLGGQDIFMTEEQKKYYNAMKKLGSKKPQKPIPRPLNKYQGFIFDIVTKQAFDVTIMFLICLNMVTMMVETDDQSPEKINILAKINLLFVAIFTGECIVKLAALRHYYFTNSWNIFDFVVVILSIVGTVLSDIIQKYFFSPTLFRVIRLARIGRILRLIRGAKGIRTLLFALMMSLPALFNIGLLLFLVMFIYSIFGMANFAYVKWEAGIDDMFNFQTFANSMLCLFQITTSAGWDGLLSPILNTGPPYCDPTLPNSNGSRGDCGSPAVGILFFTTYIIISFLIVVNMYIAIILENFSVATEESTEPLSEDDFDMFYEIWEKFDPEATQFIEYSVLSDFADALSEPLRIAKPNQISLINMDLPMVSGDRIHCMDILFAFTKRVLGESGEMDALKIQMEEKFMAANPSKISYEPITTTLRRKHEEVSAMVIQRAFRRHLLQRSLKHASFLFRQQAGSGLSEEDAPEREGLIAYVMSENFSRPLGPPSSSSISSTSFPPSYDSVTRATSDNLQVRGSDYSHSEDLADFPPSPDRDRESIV
From the text: Voltage-gated sodium channels are responsible for the initial phase of the action potential, which is a wave of electrical depolarisation usually initiated at the soma of the neuron and propagated along the nerve axon to the terminals. At the terminals, the action potential triggers the influx of calcium and the release of neurotransmitter. The voltage-gated sodium channel family is made up of four brain specific subtypes, Nav1.1, 1.2, 1.3 and 1.6; as well as Nav1.4, which is found on skeletal muscle; Nav1.5, which is found on cardiac muscle; and Nav1.7, 1.8, 1.9, are found predominantly on sensory neurons.
The effects of ICI-735 on action potential in a mammalian cell was tested. Briefly, it was observed that ICI-735 was able to block Nav1.5.

[5] = target: 5-HT1B receptor (Homo sapiens, UniProt P28222); test: Serotonin-receptor binding assay; settings: 10 μM and 0.1 μM
Sequence of 5-HT1B receptor (P28222 whole entry): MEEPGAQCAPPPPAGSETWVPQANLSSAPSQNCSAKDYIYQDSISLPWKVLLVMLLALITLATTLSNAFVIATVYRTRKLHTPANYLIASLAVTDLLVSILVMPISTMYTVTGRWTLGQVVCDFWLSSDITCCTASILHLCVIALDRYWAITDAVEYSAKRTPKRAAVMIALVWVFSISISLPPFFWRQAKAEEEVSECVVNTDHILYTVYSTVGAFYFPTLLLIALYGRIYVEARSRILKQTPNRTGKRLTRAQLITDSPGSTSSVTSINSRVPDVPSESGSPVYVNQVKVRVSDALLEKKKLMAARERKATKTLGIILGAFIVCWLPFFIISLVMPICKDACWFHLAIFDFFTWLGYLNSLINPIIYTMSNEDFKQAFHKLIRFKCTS
From the text: (§1) The methods employed in this study have been adapted from the scientific literature to maximize reliability and reproducibility. The experiments include contacting a serotonin type 1A, 1B, 1D, 2A, 2B, 2C, 3, 4, 5A, 6, and 7 receptor with a test compound and comparing the level of binding of serotonin or a control compound (e.g., fluphenazine) with that serotonin type 1A, 1B, 1D, 2A, 2B, 2C, 3, 4, 5A, 6, and 7 receptor with the level of serotonin binding or control compound binding with an otherwise identical serotonin type 1A, 1B, 1D, 2A, 2B, 2C, 3, 4, 5A, 6, and 7 receptor not contacted with the test compound. […] The skilled artisan would also appreciate, in view of the disclosure provided herein, that standard binding assays known in the art, or those to be developed in the future, can be used to assess the binding of serotonin or a control compound with a serotonin type 1A, 1B, 1D, 2A, 2B, 2C, 3, 4, 5A, 6, and 7 receptor in the presence or absence of the test compound to identify a useful compound.
(§2) ICI-735 and fluphenazine were tested for selective binding to 1A, 1B, 1D, 2A, 2B, 2C, 3, 4, 5A, 6, and 7 receptors at concentrations of 10 μM and 0.1 μM.

[6] = target: 5-HT7 receptor (Homo sapiens, UniProt P34969); test: Serotonin-receptor binding assay; settings: 10 μM and 0.1 μM
Sequence of 5-HT7 receptor (P34969 whole entry): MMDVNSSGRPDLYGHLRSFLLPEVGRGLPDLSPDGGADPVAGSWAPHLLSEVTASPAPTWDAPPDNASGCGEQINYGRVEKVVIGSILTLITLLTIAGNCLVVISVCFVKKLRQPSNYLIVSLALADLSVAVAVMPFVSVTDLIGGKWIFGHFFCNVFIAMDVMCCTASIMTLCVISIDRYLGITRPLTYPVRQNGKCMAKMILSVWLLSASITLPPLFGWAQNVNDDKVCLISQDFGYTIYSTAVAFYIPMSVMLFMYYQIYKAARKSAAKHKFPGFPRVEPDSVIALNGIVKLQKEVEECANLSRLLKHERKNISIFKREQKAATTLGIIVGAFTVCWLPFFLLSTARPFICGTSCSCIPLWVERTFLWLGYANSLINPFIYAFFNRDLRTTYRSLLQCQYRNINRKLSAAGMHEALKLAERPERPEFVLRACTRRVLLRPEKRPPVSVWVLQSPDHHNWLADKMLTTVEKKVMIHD
From the text: as §1, §2

[7] = target: 5-HT2A receptor (Homo sapiens, UniProt P28223); test: Serotonin-receptor binding assay; settings: 10 μM and 0.1 μM
Sequence of 5-HT2A receptor (P28223 whole entry): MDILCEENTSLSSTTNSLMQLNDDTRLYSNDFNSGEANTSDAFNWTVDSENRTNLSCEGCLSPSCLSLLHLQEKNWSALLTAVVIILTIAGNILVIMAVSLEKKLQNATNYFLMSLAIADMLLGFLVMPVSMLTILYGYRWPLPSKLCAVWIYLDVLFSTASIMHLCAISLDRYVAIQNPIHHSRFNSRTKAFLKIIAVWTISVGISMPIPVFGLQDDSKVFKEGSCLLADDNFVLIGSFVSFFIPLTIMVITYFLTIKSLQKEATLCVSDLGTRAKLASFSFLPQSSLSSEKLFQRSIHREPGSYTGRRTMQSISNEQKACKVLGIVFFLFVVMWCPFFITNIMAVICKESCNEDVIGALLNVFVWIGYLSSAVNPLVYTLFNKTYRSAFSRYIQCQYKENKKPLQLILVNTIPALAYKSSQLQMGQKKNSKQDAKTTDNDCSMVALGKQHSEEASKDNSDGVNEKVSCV
From the text: as §1, §2

[8] = system: BALB/c mice, Af-induced allergic airway inflammation; test: Bronchoalveolar lavage (BAL) analysis for cell count and cytokines in the asthma model; type: in vivo, mouse
Protocol: Lungs from the tested animals in Example 2 were lavaged with either a small volume (1 ml) of sterile PBS or a large volume (5 ml) of sterile saline, and total and differential cell counts were performed as described previously (Haczku et al., 1999 Am. J. Respir. Crit. Care Med. 159: 1638-1643; Haczku et al., 2000 Am. J. Respir. Crit. Care Med. 161: 952-960).
With respect to the murine model of allergen induced AHR, BALB/c mice were sensitized and challenged via intranasal instillation of Aspergillus fumigatus (Af). Two hours prior to each intranasal challenge, cohorts of five mice were administered intra peritonially (i.p.) with ICI-735 (1 mg/ml), dexamethasone (10 mg/ml). Four hours after the last allergen challenge, airway function was assessed by flexivent. Differential cytokine and immune cell abundance were also accessed in BAL fluid.

[9] = Pharmacokinetics, plasma levels in mice; type: in vivo, mouse
Protocol: Mice were treated with either 1.0 mg/kg or 10 mg/kg of ICI-735 by way of intraperitoneal administration. The plasma levels of ICI-735 were measured at baseline and various time points following administration (FIG. 6). […] Without wishing to be bound by any particular theory, it is believed that the effectiveness of ICI-735 to treat asthma can be achieved with a low dose (e.g, 1.0 mg/kg dose).
Mice were also treated with either 2.5 mg/kg intravenously or 5 mg/kg orally of ICI-735. The plasma levels of ICI-735 were measured at baseline and various time points following administration (FIG. 7). […] It was determined that oral bioavailability was approximately 20%. Therefore, it is believed that ICI-735 administration orally at approximately 1 mg/kg/day is effective at reducing lung resistence in patients with asthma.

## NCC(=O)NCCN1CCN(CCCN2c3ccccc3Sc3ccc(C(F)(F)F)cc32)CC1 [ICI-735]
[1]
  block of hCav1.2: able to block
[2]
  ability to inhibit proliferation of RPMI cells: did not inhibit proliferation of RPMI cells in vitro as well as some other compounds; also recorded: effective, but not as effective
[3]
  binding to a panel of leukotriene and prostanoid receptors: does not bind
[4]
  IC50: 8.33 µM
  block of Nav1.5: able to block
[5]
  binding to 5-HT1B receptor as compared to fluphenazine: significant increase activity; also recorded: increased binding
[6]
  binding to 5-HT7 receptor as compared to fluphenazine: significant increase activity; also recorded: increased binding
[7]
  binding to 5-HT2A receptor as compared to fluphenazine: decrease activity; also recorded: decreased binding
[8]; Af-sensitized mice
  cytokine production in BAL: little effect; also recorded: no significant effects
[8]; asthmatic animals, treated vs untreated
  total number of cells / immune cell infiltration in BAL: not a significant difference; also recorded: little effect; also recorded: no significant effects
[9]
  plasma levels after oral 5 mg/kg dose versus intravenous 2.5 mg/kg dose: comparable
[9]; intraperitoneal
  plasma levels after 1.0 mg/kg dose versus 10 mg/kg dose: comparable
[9]; mouse, plasma, oral, 5 mg/kg orally vs 2.5 mg/kg intravenously
  bioavailability: ~20%
